Data reported in patent US20180186877A1 (NATIONAL CEREBRAL AND CARDIOVASCULAR CENTER, priority 2013, published 2018).

Key:
[1] = test system: human blood plasma; test: Recalcification blood coagulation test with procyanidin; type: biochemical
Procedure: An anti-blood coagulation effect yielded by procyanidin was confirmed by the recalcification blood coagulation test. […] Thereafter, as in Example 8, human blood plasma and Ca2+ were added to the test tube, and the coagulation time was measured. Then, the coagulation time of the test tube to which no procyanidin was added, was also measured in a similar manner. Furthermore, the coagulation time of the test tube to which no recombinant LOX-1 protein was added, was also measured in a similar manner.

[2] = target: binding of LOX-1 to oxidized LDL (Homo sapiens, UniProt P78380); settings: Nishizuka et al. 2011; cited from earlier work

Substance: procyanidin
- coagulation time ([1]; 1 μg/mL procyanidin added to blood plasma alone, no LOX-1): no influence
- coagulation time ([1]; 1 μg/mL procyanidin with 1 μg/mL LOX-1 and blood plasma, significance less than 5%): reduction of the coagulation time was suppressed
- inhibition of binding of LOX-1 to oxidized LDL [2]: inhibits
